Results: patent EP4772500A1, “NOVEL ISOXAZOLE COMPOUND AS TM4SF5-SPECIFIC INHIBITOR AND USE THEREOF” (Seoul National University R&DB Foundation, priority 2023, dated 2025)
Values joined by “and” are separate entries in the source; they are usually repeats but may differ in a detail not shown here. Equal entries are not always repeated. Where two headings read alike, the source gives them in different places.

Experiments:
Alb-TG^Tm4sf5-Flag mice = test: DEN-induced liver cancer model in TM4SF5 transgenic animals; format: in vivo
Method: A liver cancer model was induced in 2-week-old male wild type (WT), Alb-TG^Tm4sf5-Flag [genetically modified animals in which Tm4sf5 expression is excessively regulated by the promoter of the Albumin gene, custom-made by Macrogen Co., Ltd.], or Tm4sf5^-/- KO C57BL/6N male animals by a single intraperitoneal injection (IP injection) of DEN (diethylnitrosamine, Sigma-Aldrich) at a concentration of 25 mg/kg, followed by raising for […]. After the DEN treatment, the animals were raised in a pathogen-free room animal facility where temperature and humidity were well controlled under a normal diet for 40 weeks. During the last 6 weeks, an isoxazole drug (dissolved in 40% DMSO) at the indicated concentration was treated by intraperitoneal injection twice a week. Forty-six weeks after the DEN injection, the animals were sacrificed, and liver tissues were analyzed through methods of tissue staining, Western blot, and qRT-PCR.
In cases where a liver cancer model is induced by treating animals with diethylnitrosamine (DEN), liver cancer formation was induced by a single intraperitoneal injection (IP injection) of DEN into 2-week-old animals, followed by raising them for 46 weeks. […] Thereafter, the animals were sacrificed, and liver tissues were obtained and analyzed. […]

[1] = target: T1, HA-TM4SF5 obtained from Huh7KO-HA-TM4SF5 (Homo sapiens, UniProt O14894); test: Binding of 14C-labelled ST-5-002 to pulled-down HA-TM4SF5
T1 construct: expressed in transfected cells; host or cells: Huh7KO (TM4SF5 knockout Huh7) stably infected with pBabe-HA-TM4SF5 retrovirus; captured with anti-HA antibody
T1 sequence (O14894 1-197): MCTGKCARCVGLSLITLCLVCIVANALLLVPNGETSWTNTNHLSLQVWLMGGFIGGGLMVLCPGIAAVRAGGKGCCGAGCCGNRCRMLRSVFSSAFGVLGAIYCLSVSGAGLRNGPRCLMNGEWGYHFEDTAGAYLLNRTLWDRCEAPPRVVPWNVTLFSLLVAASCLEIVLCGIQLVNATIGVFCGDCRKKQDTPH
Method: (§1) For Huh7KO cells, stable cell lines were established by infecting with a retrovirus inducing the expression of pBabe-HA-EV or pBabe-HA-TM4SF5. Cell extracts were obtained, and extracts containing 0.2 or 0.25 mg of protein were reacted with an anti-HA antibody and HA-tagged TM4SF5, or with streptavidin agarose resin for Strep-PD-L1 or Strep-TM4SF5 at 4°C for 2 hours for pulldown. Subsequently, in the presence or absence of cold ST-5-002 (400 µM), the samples were treated with ^14C-labelled ST-5-002 (10 or 25 µM) and reacted at 4°C for 1 hour, after which radioactive isotope values were repeatedly measured using a TriCarb scintillation counter (PerkinElmer, Waltham, MA).
After culturing HEK293FT cells transfected with Strep-EV or Strep-TM4SF5 expression vectors, or Huh7KO cells stably expressing pBabe-HA-EV or pBabe-HA-TM4SF5, cell extracts were obtained. […] The pulled-down proteins were treated with ^14C-labelled ST-5-002 at various concentrations (10 nM, 100 nM, 1 µM, 5 µM, 10 µM, 50 µM) and reacted at 4°C for 1 hour, after which radioactive isotope values were repeatedly measured using a TriCarb scintillation counter (PerkinElmer, Waltham, MA). The EC50 was calculated by normalizing the average radioactive isotope value of TM4SF5 obtained through the measurements by dividing it by the average value of EV. […]

[2] = target: T2, Strep-TM4SF5 obtained from HEK293FT (Homo sapiens, UniProt O14894); test: Binding of 14C-labelled ST-5-002 to pulled-down Strep-TM4SF5
T2 construct: expressed in transfected cells; host or cells: HEK293FT, transient transfection (48 h); protein captured on streptavidin agarose from the cell extract
T2 sequence (O14894 1-197): T1 sequence (O14894 1-197)
Method: as §1
After culturing HEK293FT cells transfected with Strep-EV or Strep-TM4SF5 expression vectors, or Huh7KO cells stably expressing pBabe-HA-EV or pBabe-HA-TM4SF5, cell extracts were obtained. Extracts containing 1 mg of protein were pulled down by reacting with streptavidin agarose resin for Strep-tagged TM4SF5 or with an anti-HA antibody for HA-tagged TM4SF5 at 4°C for 4 hours. The pulled-down proteins were treated with ^14C-labelled ST-5-002 at various concentrations (10 nM, 100 nM, 1 µM, 5 µM, 10 µM, 50 µM) and reacted at 4°C for 1 hour, after which radioactive isotope values were repeatedly measured using a TriCarb scintillation counter (PerkinElmer, Waltham, MA). The EC50 was calculated by normalizing the average radioactive isotope value of TM4SF5 obtained through the measurements by dividing it by the average value of EV.
(a) Expression vectors for a control vector, TM4SF1, TM4SF5 WT, and R113Q, C118/145A, H127A, and N138A mutants of TM4SF5 were injected into the HEK293FT cell line, which was confirmed not to express TM4SF5, and allowed to express for 48 hours. (b) Huh7KO cell lines, in which TM4SF5 was knocked out in Huh7, were stably infected with a retrovirus encoding pBabe-EV or pBabe-TM4SF5-HA. […] For the experimental samples of each condition, radioactive isotope values were repeatedly measured using a TriCarb scintillation counter (PerkinElmer, Waltham, MA).

Row | EC50 ([1]; 14C-labelled ST-5-002, HA-TM4SF5, 4°C, 1 hour (FIG. 19b)) | binding of 14C-labelled ST-5-002 to HA-TM4SF5 ([1]; simultaneous treatment with cold ST-5-002 (400 µM) (FIG. 19b)) | EC50 ([2]; 14C-labelled ST-5-002, Strep-TM4SF5, 4°C, 1 hour (FIG. 19a), read-out: EC50 of binding to TM4SF5) [µM] | binding of 14C-labelled ST-5-002 compared to the control and TM4SF1 ([2]; Strep-TM4SF5 from HEK293FT (FIG. 19a)) | EC50 ([2]; range depending on the cell source and the type of tag (Strep-TM4SF5 and HA-TM4SF5), read-out: EC50 values of binding to TM4SF5) [µM] | Compound | cancer formation (Alb-TG^Tm4sf5-Flag mice; DEN 25 mg/kg, drug 5 mg/kg IP twice a week for the final 6 weeks, Alb-TG^Tm4sf5-Flag mice (FIG. 23b)) | mRNA expressions of NK cell activating receptor factors such as SLAMF7, NKG2D, CRTAM, DNAM-1, and CD27 (Alb-TG^Tm4sf5-Flag mice; qRT-PCR of liver tissues (FIG. 23c))
1 | – | – | – | – | – | COc1ccc(-c2cc(-c3ccc(NC(C)=O)cc3)no2)cc1 [ST-2-001, N-(4-(5-(4-methoxyphenyl)isoxazole-3-yl)phenyl)acetamide] | minimal or did not occur | partially recovered and increased
2 | 850 nM and 875 nM | decreased | 8.87 | bound | 0.85 to 8.8 | Cc1ccc(C(=O)Nc2ccc(-c3cc(-c4ccc(O)cc4)no3)cc2)cc1 [ST-5-002, N-(4-(3-(4-hydroxyphenyl)isoxazole-5-yl)phenyl)-4-methylbenzamide] | – | –
